# Target: Human recombinant DHX9 protein (Homo sapiens (Human), UniProt Q08211)
# Assay: DHX9 ATPase assay (ADP-Glo)
# Type: biochemical
# Conditions: for IC50: read-out: DHX9 Biochemical Inflection Point
# Human recombinant DHX9 protein, sequence (Q08211 whole entry): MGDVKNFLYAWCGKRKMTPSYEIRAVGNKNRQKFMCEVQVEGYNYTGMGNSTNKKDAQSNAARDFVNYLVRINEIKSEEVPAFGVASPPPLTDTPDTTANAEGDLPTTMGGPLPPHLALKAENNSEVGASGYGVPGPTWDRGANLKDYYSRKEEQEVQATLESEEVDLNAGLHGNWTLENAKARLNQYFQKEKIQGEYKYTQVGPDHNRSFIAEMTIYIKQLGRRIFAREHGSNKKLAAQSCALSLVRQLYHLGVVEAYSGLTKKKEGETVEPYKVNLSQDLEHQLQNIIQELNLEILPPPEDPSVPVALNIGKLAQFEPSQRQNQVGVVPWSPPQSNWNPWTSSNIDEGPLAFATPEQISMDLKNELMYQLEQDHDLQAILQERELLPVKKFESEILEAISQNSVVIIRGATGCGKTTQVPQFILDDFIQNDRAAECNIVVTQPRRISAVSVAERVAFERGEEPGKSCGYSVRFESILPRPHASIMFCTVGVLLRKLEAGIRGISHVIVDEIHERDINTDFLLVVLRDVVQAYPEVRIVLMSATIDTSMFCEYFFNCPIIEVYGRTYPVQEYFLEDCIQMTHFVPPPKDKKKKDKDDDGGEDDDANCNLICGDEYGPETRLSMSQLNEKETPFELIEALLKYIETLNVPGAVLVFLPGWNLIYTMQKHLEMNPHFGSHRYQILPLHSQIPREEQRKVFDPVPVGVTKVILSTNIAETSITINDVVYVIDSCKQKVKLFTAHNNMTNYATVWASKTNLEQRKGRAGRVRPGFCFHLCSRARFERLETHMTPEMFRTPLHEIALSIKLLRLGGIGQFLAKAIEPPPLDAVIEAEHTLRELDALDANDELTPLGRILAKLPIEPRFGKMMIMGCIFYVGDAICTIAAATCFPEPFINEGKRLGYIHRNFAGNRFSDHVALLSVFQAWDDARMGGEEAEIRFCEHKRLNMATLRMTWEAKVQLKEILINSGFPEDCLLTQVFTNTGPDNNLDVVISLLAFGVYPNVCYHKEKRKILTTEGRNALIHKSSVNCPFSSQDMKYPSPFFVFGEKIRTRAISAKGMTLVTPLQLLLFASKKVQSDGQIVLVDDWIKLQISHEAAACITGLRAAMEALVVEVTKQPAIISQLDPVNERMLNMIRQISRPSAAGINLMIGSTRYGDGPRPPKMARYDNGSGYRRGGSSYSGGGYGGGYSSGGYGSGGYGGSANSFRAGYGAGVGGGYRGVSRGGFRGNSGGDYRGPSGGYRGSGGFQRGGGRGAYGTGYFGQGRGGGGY
smiles,measurement,value
Cc1cc(N2CCC(F)(F)CC2)cnc1-c1cc(C(=O)Nc2cc(Cl)cc(NS(C)(=O)=O)c2)cn1C [Example 600],DHX9 Biochemical Max Inhibition,79.3
same,IC50,41.6 nM
Cn1cc(C(=O)Nc2cc(Cl)cc(NS(C)(=O)=O)c2)cc1-c1ccc(OC(C)(C)C)cn1 [Example 555],DHX9 Biochemical Max Inhibition,61.9
same,IC50,43.6 nM
CC(C)(O)c1cc(C(=O)Nc2cc(Cl)cc(NS(C)(=O)=O)c2)cn1-c1ccccn1 [Example 650],DHX9 Biochemical Max Inhibition,80.6
same,IC50,52.4 nM
CCS(=O)(=O)Nc1cc(Cl)cc(NC(=O)c2cc(-c3ncc(OC)cc3F)c(C)s2)c1 [Example 360],DHX9 Biochemical Max Inhibition,56.5%
same,IC50,40.9 nM
Cc1sc(C(=O)Nc2cc(Cl)cc(NS(C)(=O)=O)c2)cc1-c1ccc(F)cn1 [Example 35],DHX9 Biochemical Max Inhibition,75.7%
same,IC50,3.9 nM
Cc1cc(C(=O)Nc2cc(Cl)cc(NS(C)(=O)=O)c2)cn1-c1ncc(N2CCC(F)(F)C2)cn1 [Example 409],DHX9 Biochemical Max Inhibition,65.7
same,IC50,29.7 nM
Cn1cc(C(=O)Nc2cc(Cl)cc(NS(C)(=O)=O)c2)cc1-c1ncc(N2CCC(C(F)(F)F)CC2)cc1F [Example 472],DHX9 Biochemical Max Inhibition,60.9
same,IC50,211 nM
CS(=O)(=O)Nc1cc(Br)cc(NC(=O)c2cc(-c3ncccc3OCc3ccccc3)cs2)c1 [Example 32],DHX9 Biochemical Max Inhibition,56.3%
same,IC50,38.3 nM
COc1cc(F)cnc1-c1cc(C(=O)Nc2cc(Cl)cc(NS(C)(=O)=O)c2)sc1C [Example 351],DHX9 Biochemical Max Inhibition,80.6%
same,IC50,15.5 nM
Cc1sc(C(=O)Nc2cc(Cl)cc(NS(=O)(=O)CCO)c2)cc1-c1ncccc1OCc1cncc(F)c1 [Example 626],DHX9 Biochemical Max Inhibition,75.7
same,IC50,4.2 nM
Cn1cc(C(=O)Nc2cc(Cl)cc(NS(C)(=O)=O)c2)cc1-c1ncccc1OCC1CC1 [Example 584],DHX9 Biochemical Max Inhibition,63.5
same,IC50,17 nM
CS(=O)(=O)Nc1cc(Br)cc(NC(=O)c2cnn(-c3cccc(OC(F)F)n3)c2)c1 [Example 57],DHX9 Biochemical Max Inhibition,45.8%
same,IC50,14600 nM
CS(=O)(=O)Nc1cc(Cl)cc(NC(=O)c2cc(-c3ccccc3OCc3ccccc3)cs2)c1 [Example 111],DHX9 Biochemical Max Inhibition,68.2%
same,IC50,250 nM
Cc1sc(C(=O)Nc2cc(Cl)cc(NS(C)(=O)=O)c2)cc1-c1ncc(N2CC3C(C2)C3(C)C)cc1F (centres unmarked) [Example 476],DHX9 Biochemical Max Inhibition,61.1
same,IC50,312 nM
Cc1sc(C(=O)Nc2cc(Cl)cc(NS(C)(=O)=O)c2)cc1-c1ncc(OC2CCC2)cn1 [Example 452],DHX9 Biochemical Max Inhibition,80.5
same,IC50,32.9 nM
COC1CCN(c2cc(F)cnc2-c2cc(C(=O)Nc3cc(Cl)cc(NS(C)(=O)=O)c3)sc2C)C1 (centres unmarked) [Example 505],DHX9 Biochemical Max Inhibition,54.3
same,IC50,46.4 nM
"Cn1cc(C(=O)Nc2cc(Cl)cc(NS(C)(=O)=O)c2)nc1-c1ccccc1 [Example 155, N-(3-chloro-5-(methylsulfonamido)phenyl)-1-methyl-2-phenyl-1H-imidazole-4-carboxamide]",DHX9 Biochemical Max Inhibition,66.4%
same,IC50,126 nM
Cc1cc(C(=O)Nc2cc(Cl)cc(NS(C)(=O)=O)c2)cn1-c1ccc(N2C3CCC2CC3)cn1 [Example 523],DHX9 Biochemical Max Inhibition,64.1
same,IC50,31.4 nM
Cc1cc(C(=O)Nc2cc(Cl)cc(NS(C)(=O)=O)c2)cn1-c1ccc(C(F)(F)F)cn1 [Example 443],DHX9 Biochemical Max Inhibition,76.6
same,IC50,59 nM
CC(=O)NC1CC2(C1)CC(n1cc(C(=O)Nc3cc(Cl)cc(NS(C)(=O)=O)c3)cn1)C2 (centres unmarked) [Example 310],DHX9 Biochemical Max Inhibition,70.3%
same,IC50,102 nM
CS(=O)(=O)Nc1cc(Cl)cc(NC(=O)c2cnn(-c3cc(N4CCNCC4)ccn3)c2)c1 [Example 147],DHX9 Biochemical Max Inhibition,76.5%
same,IC50,6.3 nM
Cc1sc(C(=O)Nc2cc(Cl)cc(NS(C)(=O)=O)c2)cc1-c1ncc(N(C)S(C)(=O)=O)cn1 [Example 720],DHX9 Biochemical Max Inhibition,72.6
same,IC50,25.2 nM
Cc1sc(C(=O)Nc2cc(Cl)cc(NS(C)(=O)=O)c2)cc1-c1cn(-c2ccccc2)nn1 [Example 236],DHX9 Biochemical Max Inhibition,68.9%
same,IC50,52.1 nM
Cc1cc(C(=O)Nc2cc(Cl)cc(NS(C)(=O)=O)c2)cn1-c1ncc(N2CCOCC2)cc1F [Example 320],DHX9 Biochemical Max Inhibition,72.2%
same,IC50,10.5 nM
CS(=O)(=O)Nc1cc(Cl)cc(NC(=O)c2cc3c(Cl)cccc3s2)c1 [Example 332],DHX9 Biochemical Max Inhibition,61.5%
same,IC50,4830 nM
CS(=O)(=O)Nc1cc(Cl)cc(NC(=O)c2coc(-c3ccccc3)c2)c1 [Example 125],DHX9 Biochemical Max Inhibition,56.7%
same,IC50,330 nM
COc1cc(N2CC(F)(F)C2)cnc1-c1cc(C(=O)Nc2cc(Cl)cc(NS(C)(=O)=O)c2)sc1C [Example 535],DHX9 Biochemical Max Inhibition,84.2
same,IC50,3.4 nM
CS(=O)(=O)Nc1cc(Cl)cc(NC(=O)c2cc(-c3ncccc3CC(=O)N3CCC3)cs2)c1 [Example 382],DHX9 Biochemical Max Inhibition,75.9%
CS(=O)(=O)Nc1cc(Cl)cc(NC(=O)c2cc(-c3ncccc3OCc3cccnc3)cs2)c1 [Example 217],DHX9 Biochemical Max Inhibition,69.6%
same,IC50,2.1 nM
CS(=O)(=O)Nc1cc(Cl)cc(NC(=O)c2cc(-c3ccccc3)c[nH]2)c1 [Example 8],DHX9 Biochemical Max Inhibition,54.4%
same,IC50,395 nM
Cc1cccnc1-n1cc(C(=O)Nc2cc(Cl)cc(NS(C)(=O)=O)c2)cn1 [Example 54],DHX9 Biochemical Max Inhibition,66.6%
same,IC50,65.6 nM
CS(=O)(=O)Nc1cc(Cl)cc(NC(=O)c2cnn(C3CCCC3)c2)c1 [Example 309],DHX9 Biochemical Max Inhibition,60.8%
same,IC50,162 nM
CS(=O)(=O)Nc1cc(Cl)cc(NC(=O)c2cc(-c3ncc(N4CC(C(F)(F)F)C4)cn3)n(CC(F)F)c2)c1 [Example 508],DHX9 Biochemical Max Inhibition,67.1
same,IC50,96.5 nM
Cn1cc(C(=O)Nc2cc(Cl)cc(NS(C)(=O)=O)c2)cc1-c1ncccc1OCc1nccs1 [Example 279],DHX9 Biochemical Max Inhibition,73.2%
same,IC50,4 nM
Cc1cc(C(=O)Nc2cc(F)cc(NS(C)(=O)=O)c2)n[nH]1 [Example 3],DHX9 Biochemical Max Inhibition,76.4%
same,IC50,648 nM
"Cn1cc(C(=O)Nc2cc(Cl)cc(NS(C)(=O)=O)c2)cc1N1CCCCC1=O [Example 158, N-(3-chloro-5-(methylsulfonamido)phenyl)-1-methyl-5-(2-oxopiperidin-1-yl)-1H-pyrrole-3-carboxamide]",DHX9 Biochemical Max Inhibition,76.5%
same,IC50,34.5 nM
CS(=O)(=O)Nc1cc(Cl)cc(NC(=O)c2cccc(-n3cccn3)c2)c1 [Example 117],DHX9 Biochemical Max Inhibition,55.5%
same,IC50,104 nM
"CC(C)(C)OC(=O)N1CC2(CC(n3cc(C(=O)Nc4cc(Cl)cc(NS(C)(=O)=O)c4)cn3)C2)C1 [Example 144, tert-butyl 6-(4-((3-chloro-5-(methylsulfonamido)phenyl)carbamoyl)-1H-pyrazol-1-yl)-2-azaspiro[3.3]heptane-2-carboxylate]",DHX9 Biochemical Max Inhibition,65.1%
same,IC50,224 nM
CS(=O)(=O)Nc1cc(Cl)cc(NC(=O)c2cc3c(C(F)(F)F)cccc3s2)c1 [Example 323],DHX9 Biochemical Max Inhibition,58.2%
same,IC50,282 nM
Cc1sc(C(=O)Nc2cc(Cl)cc(NS(C)(=O)=O)c2)cc1-c1ccc(P(C)(C)=O)cn1 [Example 647],DHX9 Biochemical Max Inhibition,72.9
CS(=O)(=O)Nc1cc(Br)cc(NC(=O)c2cc(-c3cccnc3)cs2)c1 [Example 78],DHX9 Biochemical Max Inhibition,56.2%
same,IC50,31.9 nM
Cc1cc(F)cnc1-c1cc(C(=O)Nc2cc(Cl)cc(NS(C)(=O)=O)c2)cn1C [Example 545],DHX9 Biochemical Max Inhibition,64.7
same,IC50,74.2 nM
CCc1sc(C(=O)Nc2cc(Cl)cc(NS(C)(=O)=O)c2)cc1-c1ncc(F)cc1F [Example 588],DHX9 Biochemical Max Inhibition,67.7
same,IC50,103 nM
CCS(=O)(=O)Nc1cc(Cl)cc(NC(=O)c2cc(-c3ccc(F)cn3)n(C)c2)c1 [Example 579],DHX9 Biochemical Max Inhibition,65.2
same,IC50,31.1 nM
Cn1cc(C(=O)Nc2cc(Cl)cc(NS(C)(=O)=O)c2)cc1-c1ncc(N2CCC(F)(F)C2)cc1F [Example 525],DHX9 Biochemical Max Inhibition,63.3
same,IC50,43.3 nM
Cc1sc(C(=O)Nc2cc(Cl)cc(NS(C)(=O)=O)c2)cc1-c1ncc(OC(C)CO)cn1 (centres unmarked) [Example 677],DHX9 Biochemical Max Inhibition,75.1
same,IC50,6.8 nM
Cc1cc(C(=O)Nc2cc(Cl)cc(NS(C)(=O)=O)c2)cn1-c1ccc(N2CCS(=O)(=O)CC2)cn1 [Example 285],DHX9 Biochemical Max Inhibition,70.6%
same,IC50,5.4 nM
Cc1cccnc1-c1csc(C(=O)Nc2cc(Br)cc(NS(C)(=O)=O)c2)c1 [Example 33],DHX9 Biochemical Max Inhibition,61.7%
same,IC50,4.8 nM
Cc1sc(C(=O)Nc2cc(Cl)cc(NS(C)(=O)=O)c2)cc1-c1ncc(F)cc1N1CCN(S(C)(=O)=O)CC1 [Example 506],DHX9 Biochemical Max Inhibition,47.4
same,IC50,184 nM
CN1CC[C@@H](Oc2cnc(-c3cc(C(=O)Nc4cc(Cl)cc(NS(C)(=O)=O)c4)cn3CC(F)(F)F)nc2)C1 [Example 641],DHX9 Biochemical Max Inhibition,71
same,IC50,9 nM
CCc1sc(C(=O)Nc2cc(Cl)cc(NS(C)(=O)=O)c2)cc1-c1ccc(F)cn1 [Example 589],DHX9 Biochemical Max Inhibition,69.7
Cn1cc(C(=O)Nc2cc(Cl)cc(NS(C)(=O)=O)c2)cc1-c1ncc(N2CCC(F)(F)C2)cn1 [Example 526],DHX9 Biochemical Max Inhibition,61.7
same,IC50,17.4 nM
"CN1CC[C@H](Oc2cnc(-c3cc(C(=O)Nc4cc(Cl)cc(NS(C)(=O)=O)c4)cn3C)c(F)c2)C1 [Example 639, N-(3-chloro-5-methanesulfonamidophenyl)-5-(3-fluoro-5-{[(3S)-1-methylpyrrolidin-3-yl]oxy}pyridin-2-yl)-1-methylpyrrole-3-carboxamide]",DHX9 Biochemical Max Inhibition,59.7
same,IC50,7.7 nM
Cc1sc(C(=O)Nc2cc(Cl)cc(NS(C)(=O)=O)c2)cc1-c1ncc(O)cn1 [Example 583],DHX9 Biochemical Max Inhibition,72.5
same,IC50,4.9 nM
CS(=O)(=O)Nc1cc(Cl)cc(NC(=O)c2cc(-c3ncccc3NC(=O)C3CC3)cs2)c1 [Example 220],DHX9 Biochemical Max Inhibition,79.7%
same,IC50,16 nM

# From patent publication US20240316047A1, “INHIBITORS OF RNA HELICASE DHX9 AND USES THEREOF” (ACCENT THERAPEUTICS, INC., priority 2022, published 2024)
